How the values were obtained:
[1] = Binding affinity to recombinant TetR(D) expressed in Escherichia coli RB791 by fuorescence assay
[2] = Binding affinity to recombinant TetR(D) expressed in Escherichia coli RB791 by SPR analysis

Row | Ka [1] [µM⁻¹] | Structure (SMILES) | Ka [2] [µM⁻¹]
1 | 2.3 | CN(C)[C@@H]1C(O)=C(C(N)=O)C(=O)[C@@]2(O)C(O)=C3C(=O)c4c(O)ccc(Cl)c4[C@@](C)(O)[C@H]3C[C@@H]12 | 2.36
2 |  | CN(C)[C@@H]1C(O)=C(C(N)=O)C(=O)[C@@]2(O)C(O)=C[C@@H]([C@]3(C)OC(=O)c4c(O)ccc(Cl)c43)C[C@@H]12 | 0.8
